Laboratory results taken from PubChem BioAssay AID328 (DTP/NCI, 2004).
Values joined by “and” are separate entries in the source; they are usually repeats but may differ in a detail not shown here. Identical values can stand only once. Toxic doses and inconclusive results are not listed. How the source made its calls: active means survival T/C of 150% or more; inactive means T/C below 125% in these data.

System: BDF1 mice, P388 leukemia ip, median survival T/C
Assay: NCI In Vivo Anticancer Drug Screen. Data for tumor model P388 Leukemia (intraperitoneal) in B6D2F1 (BDF1) mice
Details: endpoint: median survival time, higher = longer survival
Method in brief: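 In tumour-bearing mice, survival after compound treatment is set against the vehicle group and given as a quotient.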

[1] = dose: 100.0 mg/kg/injection, schedule: Q01DX009 (ip), vehicle: saline with Tween-80
[2] = dose: 200.0 mg/kg/injection, schedule: Q01DX009 (ip), vehicle: saline with Tween-80
[3] = dose: 400.0 mg/kg/injection, schedule: Q01DX009 (ip), vehicle: saline with Tween-80
[4] = dose: 100.0 mg/kg/injection, schedule: Q04DX003 (ip), vehicle: saline
[5] = dose: 200.0 mg/kg/injection, schedule: Q04DX003 (ip), vehicle: saline
[6] = dose: 25.0 mg/kg/injection, schedule: Q01DX009 (ip), vehicle: Klucel (hydroxypropylcellulose) (HPC)
[7] = dose: 50.0 mg/kg/injection, schedule: Q01DX009 (ip), vehicle: Klucel (hydroxypropylcellulose) (HPC)
[8] = dose: 100.0 mg/kg/injection, schedule: Q01DX009 (ip), vehicle: Klucel (hydroxypropylcellulose) (HPC)
[9] = dose: 100.0 mg/kg/injection, schedule: Q04DX003 (ip), vehicle: Klucel (hydroxypropylcellulose) (HPC)

Measured: T/C

Nc1nc(N)nc(-c2ccc([N+](=O)[O-])o2)n1
inactive: [1] 102 % of control | [2] 96 % of control | [3] 106 % of control

CCCCCCCCCCCCCCCCN(C)c1ccc(C=O)cc1
inactive: dose: 100.0 mg/kg/injection, schedule: Q01DX009 (ip), vehicle: saline 104 % of control and 110 % of control | [4] 118 % of control | dose: 200.0 mg/kg/injection, schedule: Q01DX009 (ip), vehicle: saline 100 % of control and 105 % of control | [5] 109 % of control | dose: 400.0 mg/kg/injection, schedule: Q01DX009 (ip), vehicle: saline 113 % of control | dose: 400.0 mg/kg/injection, schedule: Q04DX003 (ip), vehicle: saline 109 % of control

O=C1C(c2ccccc2)=S=C2Sc3ccccc3N12
inactive: [6] 100 % of control | dose: 25.0 mg/kg/injection, schedule: Q04DX003 (ip), vehicle: Klucel (hydroxypropylcellulose) (HPC) 90 % of control | [7] 110 % of control | dose: 50.0 mg/kg/injection, schedule: Q04DX003 (ip), vehicle: Klucel (hydroxypropylcellulose) (HPC) 90 % of control | [8] 105 % of control | [9] 100 % of control

COc1cc2c(c(OC)c1OC)CCc1cnoc1-2
inactive: dose: 50.0 mg/kg/injection, schedule: Q01DX009 (ip), vehicle: saline with Tween-80 107 % of control | [1] 95 % of control | [2] 97 % of control | [3] 92 % of control

CCCCN(C)/N=N/c1[nH]ncc1C(=O)OCC
inactive: dose: 100.0 mg/kg/injection, schedule: Q04DX003 (ip), vehicle: other 116 % of control | dose: 200.0 mg/kg/injection, schedule: Q04DX003 (ip), vehicle: other 108 % of control | dose: 400.0 mg/kg/injection, schedule: Q04DX003 (ip), vehicle: other 100 % of control

C[C@]12C=CC(=O)C=C1[C@@H](F)C[C@@H]1[C@@H]2[C@@H](O)C[C@@]2(C)[C@H]1CC[C@]2(O)C(=O)CO
inactive: [6] 104 % of control | [7] 96 % of control | [8] 91 % of control and 108 % of control | [9] 100 % of control | dose: 200.0 mg/kg/injection, schedule: Q04DX003 (ip), vehicle: Klucel (hydroxypropylcellulose) (HPC) 104 % of control | dose: 400.0 mg/kg/injection, schedule: Q04DX003 (ip), vehicle: Klucel (hydroxypropylcellulose) (HPC) 95 % of control

C=CCCCCCC/C=C\CCCCC
inactive: dose: 50.0 mg/kg/injection, schedule: Q01DX010 (ip), vehicle: alcohol 104 % of control

COc1ccc(CCN2CSC(=S)N(CCc3ccc(OC)c(OC)c3)C2)cc1OC
inactive: [8] 100 % of control | dose: 200.0 mg/kg/injection, schedule: Q01DX009 (ip), vehicle: Klucel (hydroxypropylcellulose) (HPC) 110 % of control | dose: 400.0 mg/kg/injection, schedule: Q01DX009 (ip), vehicle: Klucel (hydroxypropylcellulose) (HPC) 94 % of control

CN(C)c1ccc(C(=O)c2ccc(N(C)C)cc2)cc1
inactive: dose: 100.0 mg/kg/injection, schedule: Q04DX003 (ip), vehicle: saline with Tween-80 113 % of control | dose: 118.0 mg/kg/injection, schedule: Q04DX003 (ip), vehicle: saline with Tween-80 108 % of control | dose: 177.0 mg/kg/injection, schedule: Q04DX003 (ip), vehicle: saline with Tween-80 106 % of control and 110 % of control | dose: 200.0 mg/kg/injection, schedule: Q04DX003 (ip), vehicle: saline with Tween-80 109 % of control | dose: 264.0 mg/kg/injection, schedule: Q04DX003 (ip), vehicle: saline with Tween-80 120 % of control | dose: 265.0 mg/kg/injection, schedule: Q04DX003 (ip), vehicle: saline with Tween-80 103 % of control | dose: 266.0 mg/kg/injection, schedule: Q04DX003 (ip), vehicle: saline with Tween-80 100 % of control | dose: 400.0 mg/kg/injection, schedule: Q04DX003 (ip), vehicle: saline with Tween-80 105 % of control

COc1ccc(C=C2c3ccccc3-c3ccccc32)cc1
inactive: dose: 100.0 mg/kg/injection, schedule: Q01DX001 (ip), vehicle: saline with Tween-80 100 % of control | dose: 200.0 mg/kg/injection, schedule: Q01DX001 (ip), vehicle: saline with Tween-80 95 % of control | dose: 400.0 mg/kg/injection, schedule: Q01DX001 (ip), vehicle: saline with Tween-80 100 % of control

CCCNc1ncnc2c1cnn2C
inactive: dose: 12.5 mg/kg/injection, schedule: Q01DX009 (ip), vehicle: saline 88 % of control | dose: 25.0 mg/kg/injection, schedule: Q01DX009 (ip), vehicle: saline 112 % of control | dose: 50.0 mg/kg/injection, schedule: Q01DX009 (ip), vehicle: saline 108 % of control | [4] 120 % of control | [5] 120 % of control
